Data from article PMC3004914, “Classification of Drugs Based on Properties of Sodium Channel Inhibition: A Comparative Automated Patch-Clamp Study” (PLoS ONE, 2010).
Where two headings read alike, the source gives them in different places.

Legend:
[1] = biological target: T1, rNav1.2 sodium channels (HEK-293 cells) (Rattus norvegicus, UniProt P04775); assay: 5 Hz train protocol, QPatch automated patch-clamp; format: cell-based; conditions: for Rev (reversibility): Rev = A5/A1 after washout;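 as to UD (use-dependence of the inhibition): UD = (A3/A4)/(A1/A2) as ratios of peak amplitudes from Figure 1A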
Summary of the method: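 rNav1.2 in stable HEK-293 cells, QPatch whole-cell; 5 Hz trains of five pulses from −90 to −10 mV, repeated every 20 s; 10 control trains, 10 with drug, then washout. Inhibition of peak current at a single concentration gave IC50; reversibility, use-dependence and τoff also derived.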

[2] = biological target: T1, rNav1.2 sodium channels (HEK-293 cells); assay: steady-state inactivation protocol (availability curves), QPatch automated patch-clamp; format: cell-based
Summary of the method: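 HEK-293 cells stably expressing rat Nav1.2, recorded by automated patch clamp in extracellular solution pH 7.3 containing CdCl2 and TEA. Availability measured with 400 ms pre-pulses from −150 to −30 mV, then a 10 ms test pulse to −10 mV. Kr, Ki (four-state model) and Kr/Ki state-dependence derived from inhibition and ΔV1/2.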

sodium channels [3] = conditions: cited from earlier work
sodium channels [4] = conditions: cited from earlier work; for Ki: read-out: Ki−Lit; for Kd: read-out: Kr−Lit
[5] = human plasma, cited from earlier work
[6] = 300 μM, 3 s assigned where too short to be resolved
[7] = HEK293, read-out: IC50, calculated from Inh at single concentration 100 μM, −90 mV, 5 Hz train
[8] = HEK293, read-out: IC50, calculated from Inh at single concentration 300 μM, −90 mV, 5 Hz train
[9] = HEK293, read-out: Inh (inhibited fraction)
[10] = HEK293, read-out: Inh (inhibited fraction) at holding potential −150 mV
[11] = arithmetic mean, 300 µM, read-out: Ki-Kapp arith
[12] = arithmetic mean, 300 µM, read-out: Ki-ΔV1/2 arith
[13] = arithmetic mean, 300 µM, read-out: Kr arith
[14] = geometric mean, from Inh at −150 mV, 300 µM, read-out: Kr (resting state affinity)
[15] = geometric mean, from apparent affinity, 300 µM, read-out: Ki−Kapp (inactivated state affinity)
[16] = geometric mean, from shift of availability curve, 300 µM, read-out: Ki−ΔV1/2 (inactivated state affinity)
[17] = 100 μM, 500 s assigned where irreversible

T1 sequence (P04775 whole entry): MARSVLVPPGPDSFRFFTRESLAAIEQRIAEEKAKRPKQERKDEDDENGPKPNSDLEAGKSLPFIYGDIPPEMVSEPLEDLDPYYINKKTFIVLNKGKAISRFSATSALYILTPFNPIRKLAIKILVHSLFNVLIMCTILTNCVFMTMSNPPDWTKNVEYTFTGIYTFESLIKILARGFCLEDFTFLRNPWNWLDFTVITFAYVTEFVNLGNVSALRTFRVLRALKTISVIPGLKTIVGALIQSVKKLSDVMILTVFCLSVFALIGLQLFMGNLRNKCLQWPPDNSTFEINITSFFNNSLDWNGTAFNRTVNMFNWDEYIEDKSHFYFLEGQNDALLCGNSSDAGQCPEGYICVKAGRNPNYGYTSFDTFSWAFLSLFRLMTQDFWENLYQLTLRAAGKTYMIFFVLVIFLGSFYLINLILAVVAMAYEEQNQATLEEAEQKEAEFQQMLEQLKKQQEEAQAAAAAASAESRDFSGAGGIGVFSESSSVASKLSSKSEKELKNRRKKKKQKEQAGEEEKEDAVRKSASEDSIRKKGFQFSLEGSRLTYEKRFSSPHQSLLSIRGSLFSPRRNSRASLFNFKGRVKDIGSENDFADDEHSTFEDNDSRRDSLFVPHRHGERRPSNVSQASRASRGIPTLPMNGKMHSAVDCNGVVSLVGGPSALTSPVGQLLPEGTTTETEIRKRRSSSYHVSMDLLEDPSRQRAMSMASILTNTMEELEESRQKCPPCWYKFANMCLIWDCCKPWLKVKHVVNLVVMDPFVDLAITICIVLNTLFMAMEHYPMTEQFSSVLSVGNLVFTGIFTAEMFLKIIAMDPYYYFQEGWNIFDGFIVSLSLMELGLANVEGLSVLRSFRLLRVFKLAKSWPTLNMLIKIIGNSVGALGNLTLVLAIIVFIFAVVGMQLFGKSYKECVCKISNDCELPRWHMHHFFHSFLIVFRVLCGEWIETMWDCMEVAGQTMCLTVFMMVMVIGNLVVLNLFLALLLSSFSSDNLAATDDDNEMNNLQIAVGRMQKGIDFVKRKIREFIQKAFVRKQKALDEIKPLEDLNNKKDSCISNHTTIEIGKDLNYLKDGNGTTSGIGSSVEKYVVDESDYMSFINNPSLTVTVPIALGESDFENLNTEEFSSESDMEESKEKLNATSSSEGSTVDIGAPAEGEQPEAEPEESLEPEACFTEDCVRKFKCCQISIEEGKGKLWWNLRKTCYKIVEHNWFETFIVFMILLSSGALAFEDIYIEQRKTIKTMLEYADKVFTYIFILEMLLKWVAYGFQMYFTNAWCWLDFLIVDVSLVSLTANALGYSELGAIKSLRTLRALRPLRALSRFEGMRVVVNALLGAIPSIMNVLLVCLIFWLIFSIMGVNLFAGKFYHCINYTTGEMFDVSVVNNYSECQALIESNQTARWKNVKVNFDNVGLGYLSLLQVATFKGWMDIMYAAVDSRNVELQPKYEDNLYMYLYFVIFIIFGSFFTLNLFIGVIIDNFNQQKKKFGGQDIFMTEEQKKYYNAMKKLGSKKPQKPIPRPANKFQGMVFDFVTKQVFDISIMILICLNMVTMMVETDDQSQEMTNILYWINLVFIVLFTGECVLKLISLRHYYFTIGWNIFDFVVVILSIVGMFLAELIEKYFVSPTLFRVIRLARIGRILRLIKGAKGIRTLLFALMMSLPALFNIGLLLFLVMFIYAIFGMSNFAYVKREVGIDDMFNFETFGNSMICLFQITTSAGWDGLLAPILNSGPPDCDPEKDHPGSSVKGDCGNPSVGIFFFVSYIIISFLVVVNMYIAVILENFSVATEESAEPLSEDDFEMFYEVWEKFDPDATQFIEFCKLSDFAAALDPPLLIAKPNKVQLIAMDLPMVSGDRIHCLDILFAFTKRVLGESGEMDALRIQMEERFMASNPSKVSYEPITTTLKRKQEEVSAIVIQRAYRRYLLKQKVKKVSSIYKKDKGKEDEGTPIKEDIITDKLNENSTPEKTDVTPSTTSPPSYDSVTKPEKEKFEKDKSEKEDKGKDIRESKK

Row | SMILES | τoff ([1]; 300 μM) [s] | τon [1, 6] [s] | UD (use-dependence of the inhibition) ([1]; 300 μM, 5 Hz train) | Rev (reversibility) ([1]; 300 μM) | potency estimated from few doses [1, 7] [µM] | potency estimated from few doses [1, 8] [µM] | inhibition at 100 µM [1, 9] [%] | inhibition at 300 µM [1, 9] [%] | inhibition at 300 µM [2, 10] [%] | Ki [2, 11] [µM] | Ki [2, 12] [µM] | Kd [2, 13] [µM] | Kd [2, 14] [µM] | Ki [2, 15] [µM] | Ki [2, 16] [µM] | criterion of at least 60% inhibition at 10 µM concentration (sodium channels [3]) | Ki (sodium channels [4]; averaged literature data) [µM] | Kd (sodium channels [4]; averaged literature data) [µM] | plasma conc. ([5]; as printed in each cell) | plasma conc. ([5]; as printed in the µg/ml cell) [µM] | other results
1 | CCN(CC)CC(=O)Nc1c(C)cccc1C [LID, Lidocaine] | 6 | 3 | 1.14 | 0.95 | 1050 | 977 | 9 | 23 | 9 | 70.3 | 114 | 3340 | 3190 | 65.7 | 89.6 | failed to fulfill this criteria | – | – | – | – | potency estimated from few doses ([1]; HEK293, read-out: IC50, calculated from Inh at single concentration 1000 µM): 1270 µM; inhibition at 1000 µM [1, 9]: 44%; potency ([1]; in words): among the least potent SCIs; potency estimated from few doses ([1]; read-out: IC50, calculated from Inh at single concentration 300 μM, −90 mV, 5 Hz train): 1080 µM
2 | Nc1nnc(-c2cccc(Cl)c2Cl)c(N)n1 [LTG, Lamotrigine] | 18.1 | 8.19 | 0.97 | 0.85 | – | 905 | – | 25 | 12 | 40.4 | 37.3 | 2330 | 2270 | 36.7 | 31.3 | failed to fulfill this criteria | 15.1 | 1560 | 2.5 [44] µg/ml | 9.762 | ΔV1/2 (shift of availability curve) ([2]; 300 μM): −10.3 mV
3 | COc1ccc(C(CN(C)C)C2(O)CCCCC2)cc1 (stereo not shown) [VFX, Venlafaxine] | – | – | – | – | 727 | – | 12 | – | – | – | – | – | – | – | – | – | 0.64 | – | 0.17 [44] µg/ml | 0.532 | Kd (sodium channels [4]): 8 µM; τon ([1]; 100 μM): 4.85 s; UD (use-dependence of the inhibition) ([1]; 100 μM, 5 Hz train): 1.05; τoff [1, 17]: 5.2 s; Rev (reversibility) ([1]; 100 μM): 0.89; ΔV1/2 (shift of availability curve) ([2]; 100 μM): −4.66 mV; inhibition at 100 µM [2, 10]: 11%; Ki ([2]; Ki-Kapp arith, arithmetic mean, 100 µM): 72.8 µM; Ki ([2]; Ki-ΔV1/2 arith, arithmetic mean, 100 µM): 75.8 µM; Ki ([2]; Ki−Kapp (inactivated state affinity), geometric mean, from apparent affinity, 100 µM): 63.4 µM; Ki ([2]; Ki−ΔV1/2 (inactivated state affinity), geometric mean, from shift of availability curve, 100 µM): 59.5 µM; Kd ([2]; Kr (resting state affinity), geometric mean, from Inh at −150 mV, 100 µM): 889 µM; Kd ([2]; Kr arith, arithmetic mean, 100 µM): 1000 µM
4 | CCCCN1CCCCC1C(=O)Nc1c(C)cccc1C (stereo not shown) [BPV, Bupivacaine] | – | – | – | – | – | – | – | – | – | – | – | – | – | – | – | – | 20.1 | 291 | 0.8 [44] µg/ml | 2.462 | τon ([1]; 100 μM): 7.95 s; UD (use-dependence of the inhibition) ([1]; 100 μM, 5 Hz train): 1.62; τoff [1, 17]: 16.73 s; Rev (reversibility) ([1]; 100 μM): 0.75; use-dependence (UD) ([1]; 5 Hz train): high use-dependence; inhibition at 100 µM ([1]; HEK293, 100 μM, −90 mV holding potential, 5 Hz train, read-out: Inh (inhibited fraction)): 60%; potency estimated from few doses ([1]; HEK293, calculated from Inh at single concentration 100 μM, −90 mV, 5 Hz train, read-out: IC50): 67.7 µM; ΔV1/2 (shift of availability curve) ([2]; 100 μM): −11.3 mV; inhibition at 100 µM ([2]; HEK293, 100 µM, read-out: Inh (inhibited fraction) at holding potential −150 mV): 14%; Ki ([2]; arithmetic mean, 100 µM, read-out: Ki-Kapp arith): 8.21 µM; Ki ([2]; arithmetic mean, 100 µM, read-out: Ki-ΔV1/2 arith): 6.46 µM; Kd ([2]; arithmetic mean, 100 µM, read-out: Kr arith): 635 µM; Kd ([2]; geometric mean, from Inh at −150 mV, 100 µM, read-out: Kr (resting state affinity)): 619 µM; Ki ([2]; geometric mean, from apparent affinity, 100 µM, read-out: Ki−Kapp (inactivated state affinity)): 7.79 µM; Ki ([2]; geometric mean, from shift of availability curve, 100 µM, read-out: Ki−ΔV1/2 (inactivated state affinity)): 5.85 µM
